Experiments:
[1] = test system: Na+ channels; test: Whole-cell patch-clamp, total Na+ currents in DRG neurons; format: cell-based, rat
Procedure: Recordings were obtained from acutely dissociated DRG neurons as described earlier (Bellampalli et al., 2019). Patch-clamp recordings were performed at room temperature (22-24° C.). Currents were recorded using an EPC 10 Amplifier-HEKA (HEKA Elektronik, Ludwigshafen, Germany) linked to a computer with Patchmaster software. DRG neurons were incubated overnight (˜16-24 hours) with 20 μM of CBD3063.
For Na^+ current (INa^+) recordings, the external solution contained (in mM): 130 NaCl, 3 KCl, 30 tetraethylammonium chloride, 1 CaCl2, 0.5 CdCl2, 1 MgCl2, 10 D-glucose, and 10 HEPES (pH 7.3 adjusted with NaOH, and mOsm/L=324). Patch pipettes were filled with an internal solution containing (in mM): 140 CsF, 1.1Cs-EGTA, 10 NaCl, and 15 HEPES (pH 7.3 adjusted with CsOH, and mOsm/L=311). Peak Na^+ current was acquired by applying 150-millisecond voltage steps from −70 to +60 mV in 5-mV increments from a holding potential of −60 mV to obtain the current-voltage (I-V) relation.
Normalization of currents to each cell's capacitance (pF) was performed to allow for collection of current density data. For I-V curves, functions were fitted to data using a non-linear least squares analysis. I-V curves were fitted using double Boltzmann functions:
Activation curves were obtained from the I-V curves by dividing the peak current at each depolarizing step by the driving force according to the equation: G=I/(Vmem-Erev), where I is the peak current, Vmem is the membrane potential and Erev is the reversal potential. The conductance (G) was normalized against the maximum conductance (Gmax). For total and the different subtypes of Ca^2+ currents, steady-state inactivation (SSI) curves were obtained by applying an H-infinity protocol that consisted of 1.5-seconds conditioning pre-pulses from −100 to +30 mV in 10-mV increments followed by a 20-millisecond test pulse to +10 mV. For Na^+ currents, SSI curves were obtained by applying an H-infinity protocol that consisted of 1-second conditioning pre-pulses from −120 to +10 mV in 10-mV increments followed by a 200-millisecond test pulse to +10 mV. Inactivation curves were obtained by dividing the peak current recorded at the test pulse by the maximum current (Imax). Activation and SSI curves were fitted with the Boltzmann equation.

[2] = target: T1, Cav2.2-CRMP2 interaction (Mus musculus, UniProt O55017); test: CRMP2 immunoprecipitation to detect Cav2.2 in CAD cells; format: cell-based
T1 construct: a mouse neuronal cell line expressing both CRMP2 and Cav2.2; endogenous in cells; host or cells: mouse CAD cells (ECACC Cat #08100805)
Procedure: (§1) Mouse neuron derived Cathecholamine A differentiated CAD cells (ECACC Cat #08100805, RRID: CVCL_0199) were grown in standard cell culture conditions, 37° C. in 5% (vol/vol) CO2. The cells were maintained in DMEM/F12 media supplemented with 10% (vol/vol) FBS (HyClone) and 1% penicillin/streptomycin sulfate from 10,000 μg/mL stock.
CAD cells were incubated overnight with a vehicle (0.1% DMSO) or CBD3063 (20 μM). The next day the cells were lysed into the IP buffer containing 20 mM Tris-HCl pH=7.4, 50 mM NaCl, 2 mM MgCl2, 10 mM N-Ethylmaleimide (NEM), 1% (vol/vol) NP-40, 0.5% (mass/vol) sodium deoxycholate, 0.1% (mass/vol) sodium dodecyl sulfate (SDS) with protease inhibitors (Cat #B14002, Biotool, Houston, TX), phosphatase inhibitors (Cat #B15002, Biotool, Houston, TX) and Nuclease (Cat #88701, Thermo Fisher Scientific, Waltham, MA). Total protein concentration was determined by BCA protein assay kit (Cat #PI23225, Thermo Fisher Scientific, Waltham, MA). Five hundred micrograms of total protein were incubated overnight with 2 μg of CRMP2 antibody (Cat #C2993, Sigma-Aldrich, St. Louis, MO) at 4° C. under gentle agitation. Protein G magnetic beads (Cat #10004D, Thermo Fisher Scientific, Waltham, MA), pre-equilibrated with the immunoprecipitation buffer, were then added to the lysates and incubated for 2 hours at 4° C. to capture immuno-complexes. […]

[3] = test system: CRMP2; test: Immunoblot of CRMP2 phosphorylation in CAD cells; format: cell-based, mouse; details: overnight incubation of CBD3063 (20 µM)
Procedure: as §1
Indicated samples were loaded on 4-20% Novex gels (cat. no. XP04205BOX; Thermo Fisher Scientific, Waltham, MA). Proteins were transferred to preactivated PVDF membranes for 1 hour at 100 V using TGS [25 mM Tris, pH 8.5, 192 mM glycine, 0.1% (mass/vol) SDS], 20% (vol/vol) methanol as transfer buffer (0.45 μm; Cat #IPVH00010; Millipore Sigma, St. Louis, MO). After transfer, the membranes were blocked at room temperature for 1 hour with TBST (50 mM Tris·HCl, pH 7.4, 150 mM NaCl, 0.1% Tween 20) with 5% (mass/vol) nonfat dry milk, and then incubated overnight at 4° C. separately with indicated primary antibodies, β111-Tubulin (Cat #G7121; Promega, Madison, WI), CRMP2 (Cat #C2993; Sigma-Aldrich, St. Louis, MO), Cav2.2 (Cat #TA308673; Origene, Rockville, MD), CRMP2 pSer522 (Cat #CP2191; ECM Biosciences, Versailles, KY), and CRMP2 pThr514 (Cat #PA5-110113; Invitrogen, Waltham, MA), in TBST, 5% (mass/vol) BSA. For examining the effect of CBD3063 on CRMP2 phosphorylation state, CAD cells were treated overnight with vehicle (0.1% DMSO) or CBD3063 (20 μM) and the next day cells were lysed using RIPA buffer. Approximately 40 μg of total proteins were loaded on an SDS-PAGE and then transferred to polyvinylidene difluoride membranes and blocked at room temperature for 1 hour. Primary antibodies used for probing were CRMP2 (Cat #C2993, Sigma-Aldrich, St Louis, MO), CRMP2 pThr514 (Cat #PB-043, Kinasource, Dundee, Scotland, United Kingdom), CRMP2 pSer522 (Cat #CP2191, ECM Biosciences, Versailles, KY), and CRMP2 pT555 (Cat #CP2251, ECM Biosciences, Versailles, KY).

[4] = 20 μM overnight, mean ± SEM (n cells)

T1 sequence (O55017 whole entry): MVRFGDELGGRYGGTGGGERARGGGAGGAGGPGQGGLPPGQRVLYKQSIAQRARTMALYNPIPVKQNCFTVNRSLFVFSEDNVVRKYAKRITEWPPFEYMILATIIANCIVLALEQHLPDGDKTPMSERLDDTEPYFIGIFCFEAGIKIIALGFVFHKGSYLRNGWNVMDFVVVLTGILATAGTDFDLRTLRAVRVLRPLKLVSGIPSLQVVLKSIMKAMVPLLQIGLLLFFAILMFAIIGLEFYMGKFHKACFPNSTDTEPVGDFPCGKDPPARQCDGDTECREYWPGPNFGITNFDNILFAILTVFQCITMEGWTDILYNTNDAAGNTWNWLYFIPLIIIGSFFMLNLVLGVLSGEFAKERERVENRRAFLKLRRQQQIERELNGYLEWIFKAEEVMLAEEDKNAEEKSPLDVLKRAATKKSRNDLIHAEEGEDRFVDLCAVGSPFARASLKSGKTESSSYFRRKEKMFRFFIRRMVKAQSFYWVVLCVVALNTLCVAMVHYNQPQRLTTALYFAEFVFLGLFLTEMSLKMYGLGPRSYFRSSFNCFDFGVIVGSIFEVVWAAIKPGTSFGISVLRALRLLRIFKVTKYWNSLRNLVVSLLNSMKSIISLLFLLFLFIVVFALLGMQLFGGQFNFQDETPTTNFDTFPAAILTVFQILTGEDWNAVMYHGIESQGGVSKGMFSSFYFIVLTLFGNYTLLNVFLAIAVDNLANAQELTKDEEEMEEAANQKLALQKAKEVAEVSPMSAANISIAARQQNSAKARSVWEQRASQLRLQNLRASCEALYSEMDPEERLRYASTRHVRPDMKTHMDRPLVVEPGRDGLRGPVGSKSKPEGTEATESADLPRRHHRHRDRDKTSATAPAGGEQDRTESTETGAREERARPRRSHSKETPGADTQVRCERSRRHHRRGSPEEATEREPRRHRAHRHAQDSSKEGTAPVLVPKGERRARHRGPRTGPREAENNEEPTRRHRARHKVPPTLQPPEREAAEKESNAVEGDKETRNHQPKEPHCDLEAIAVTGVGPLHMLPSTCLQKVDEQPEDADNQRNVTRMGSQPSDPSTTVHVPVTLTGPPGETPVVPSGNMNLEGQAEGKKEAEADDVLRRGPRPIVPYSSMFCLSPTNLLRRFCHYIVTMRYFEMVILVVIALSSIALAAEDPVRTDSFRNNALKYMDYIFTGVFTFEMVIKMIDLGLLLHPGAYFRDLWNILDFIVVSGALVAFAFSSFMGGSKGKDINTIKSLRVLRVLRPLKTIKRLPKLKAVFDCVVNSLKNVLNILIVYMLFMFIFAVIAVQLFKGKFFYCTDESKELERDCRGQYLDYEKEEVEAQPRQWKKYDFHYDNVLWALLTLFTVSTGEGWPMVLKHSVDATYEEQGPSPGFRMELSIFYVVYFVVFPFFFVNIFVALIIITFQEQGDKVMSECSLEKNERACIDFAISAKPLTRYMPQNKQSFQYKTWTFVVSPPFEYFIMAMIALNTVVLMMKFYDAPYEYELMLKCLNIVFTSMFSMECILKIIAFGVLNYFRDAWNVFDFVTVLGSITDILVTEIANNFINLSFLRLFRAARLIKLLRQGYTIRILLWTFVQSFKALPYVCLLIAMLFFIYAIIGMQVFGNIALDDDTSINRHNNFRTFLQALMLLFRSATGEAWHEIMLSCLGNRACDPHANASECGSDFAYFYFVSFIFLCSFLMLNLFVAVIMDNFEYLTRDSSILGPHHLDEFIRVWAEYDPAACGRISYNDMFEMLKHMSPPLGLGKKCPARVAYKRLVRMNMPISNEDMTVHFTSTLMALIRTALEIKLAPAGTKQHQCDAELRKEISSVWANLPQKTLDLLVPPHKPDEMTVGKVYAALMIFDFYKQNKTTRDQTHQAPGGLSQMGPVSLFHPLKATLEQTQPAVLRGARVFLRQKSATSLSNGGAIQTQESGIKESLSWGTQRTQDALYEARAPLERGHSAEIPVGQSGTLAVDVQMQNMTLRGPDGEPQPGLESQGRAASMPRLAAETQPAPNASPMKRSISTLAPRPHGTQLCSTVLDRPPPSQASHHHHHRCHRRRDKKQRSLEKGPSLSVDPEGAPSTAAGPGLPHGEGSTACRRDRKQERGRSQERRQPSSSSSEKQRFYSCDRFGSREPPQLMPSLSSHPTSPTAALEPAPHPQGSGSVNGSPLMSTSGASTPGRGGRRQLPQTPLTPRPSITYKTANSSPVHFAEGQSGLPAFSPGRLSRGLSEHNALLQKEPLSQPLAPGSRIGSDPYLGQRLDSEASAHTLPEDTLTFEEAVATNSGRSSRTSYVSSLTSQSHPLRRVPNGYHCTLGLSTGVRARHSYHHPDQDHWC

relative Cav2.2 binding to CRMP2 ([2]; 20 μM overnight (DMSO: 1.00±0.05)): 0.64±0.02
reduction in the level of Cav2.2 protein immunoprecipitated by CRMP2 ([2]; 20 μM overnight, versus control): ~35%
Structure (SMILES): CC(=O)N[C@@H]1CCCN(C(=O)NCCCNc2ccccn2)C1 [CBD3063, (3R)-3-acetamido-N-[3-(pyridin-2-ylamino)propyl]piperidine-1-carboxamide]
peak Na+ current density ([1]; 20 μM overnight (DMSO: −455.7±78.70)): −455.0±60.79 pA/pF
Na+ currents, activation V1/2 [1, 4]: −21.738 ± 0.852 (12) mV
Na+ currents, activation k (slope factor) [1, 4]: 4.749 ± 0.744 (12)
Na+ currents, inactivation V1/2 [1, 4]: −32.552 ± 2.084 (12) mV
Na+ currents, inactivation k (slope factor) [1, 4]: −12.003 ± 1.936 (12)
expression of phosphorylated CRMP2 at site 514 (GSK-3β) [3]: no differences
expression of phosphorylated CRMP2 at site 522 (Cdk5) [3]: no differences
expression of phosphorylated CRMP2 at site 555 (RhoK) [3]: no differences
